From patent US7452876B2, “Cyclopropyl fused indolobenzazepine HCV NS5B inhibitors” (Bristol-Myers Squibb Company, priority 2006, dated 2008)

Tests used:
[1] = target: T1, HCV NS5B RdRp genotype 1b (Hepatitis C virus genotype 1b, UniProt Q9WMX2); assay: Modified HCV NS5B RdRp enzyme assay (preincubation protocol); type: biochemical
T1 construct: The protein was expressed with an 18 amino acid C-terminal truncation to enhance the solubility; made in house; host or cells: E. coli BL21 (DE3), pET21a
Description: HCV NS5B RdRp cloning, expression, and purification. The cDNA encoding the NS5B protein of HCV, genotype 1b, was cloned into the pET21a expression vector. The protein was expressed with an 18 amino acid C-terminal truncation to enhance the solubility. The E. coli competent cell line BL21 (DE3) was used for expression of the protein. Cultures were grown at 37° C. for ˜4 hours until the cultures reached an optical density of 2.0 at 600 nm. The cultures were cooled to 20° C. and induced with 1 mM IPTG. Fresh ampicillin was added to a final concentration of 50 μg/ml and the cells were grown overnight at 20° C.
Cell pellets (3L) were lysed for purification to yield 15-24 mgs of purified NS5B. The lysis buffer consisted of 20 mM Tris-HCl, pH 7.4, 500 mM NaCl, 0.5% triton X-100, 1 mM DTT, 1 mM EDTA, 20% glycerol, 0.5 mg/ml lysozyme, 10 mM MgCl2, 15 ug/ml deoxyribonuclease I, and Complete TM protease inhibitor tablets (Roche). After addition of the lysis buffer, frozen cell pellets were resuspended using a tissue homogenizer. To reduce the viscosity of the sample, aliquots of the lysate were sonicated on ice using a microtip attached to a Branson sonicator. The sonicated lysate was centrifuged at 100,000×g for 1 hr at 4° C. and filtered through a 0.2 μm filter unit (Corning).
The protein was purified using three sequential chromatography steps: Heparin sepharose CL-6B, polyU sepharose 4B, and Hitrap SP sepharose (Pharmacia). The chromatography buffers were identical to the lysis buffer but contained no lysozyme, deoxyribonuclease I, MgCl2 or protease inhibitor and the NaCl concentration of the buffer was adjusted according to the requirements for charging the protein onto the column. Each column was eluted with a NaCl gradient which varied in length from 5-50 column volumes depending on the column type. After the final chromatography step, the resulting purity of the enzyme is >90% based on SDS-PAGE analysis. The enzyme was aliquoted and stored at −80° C.
Standard HCVNS5B RdRp enzyme assay. HCV RdRp genotype 1b assays were run in a final volume of 60 μl in 96 well plates (Costar 3912). The assay buffer is composed of 20 mM Hepes, pH 7.5, 2.5 mM KCl, 2.5 mM MgCl2, 1 mM DTT, 1.6 U RNAse inhibitor (Promega N2515), 0.1 mg/ml BSA (Promega R3961), and 2% glycerol. All compounds were serially diluted (3-fold) in DMSO and diluted further in water such that the final concentration of DMSO in the assay was 2%. HCV RdRp genotype 1b enzyme was used at a final concentration of 28 nM. A polyA template was used at 6 nM, and a biotinylated oligo-dT 12 primer was used at 180 nM final concentration. Template was obtained commercially (Amersham 27-4110). Biotinylated primer was prepared by Sigma Genosys. 3H-UTP was used at 0.6 μCi (0.29 μM total UTP). Reactions were initiated by the addition of enzyme, incubated at 30° C. for 60 min, and stopped by adding 25 μl of 50 mM EDTA containing SPA beads (4 μg/μl, Amersham RPNQ 0007). Plates were read on a Packard Top Count NXT after >1 hr incubation at room temperature.
Modified HCVNS5B RdRp enzyme assay. A modified enzyme assay was performed essentially as described for the standard enzyme assay except for the following: The biotinylated oligo dT12 primer was precaptured on streptavidin-coated SPA beads by mixing primer and beads in assay buffer and incubating at room temperature for one hour. Unbound primer was removed after centrifugation. The primer-bound beads were resuspended in 20 mM Hepes buffer, pH 7.5 and used in the assay at final concentrations of 20 nM primer and 0.67 μg/μl beads. Order of addition in the assay: enzyme (14 nM) was added to diluted compound followed by the addition of a mixture of template (0.2 nM), 3H-UTP (0.6 μCi, 0.29 μM), and primer-bound beads, to initiate the reaction; concentrations given are final. Reactions were allowed to proceed for 4 hours at 30° C.
IC50 values for compounds were determined using seven different [I]. […]

[2] = system: HCV replicon cells; assay: HCV replicon FRET assay; type: cell-based; conditions: Hepatitis C virus
Text: FRET Assay Preparation. To perform the HCV FRET screening assay, 96-well cell culture plates were used. The FRET peptide (Anaspec, Inc.) (Taliani et al., Anal. Biochem. 1996, 240, 60-67) contains a fluorescence donor, EDANS, near one end of the peptide and an acceptor, DABCYL, near the other end. The fluorescence of the peptide is quenched by […] resonance energy transfer (RET) between the donor and the acceptor, but as the NS3 protease cleaves the peptide the products are released from RET quenching and the fluorescence of the donor becomes apparent. The assay reagent was made as follows: 5× cell Luciferase cell culture lysis reagent from Promega (#E153A) diluted to 1× with dH2O, NaCl added to 150 mM final, the FRET peptide diluted to 20 uM final from a 2 mM stock.
To prepare plates, HCV replicon cells, with or without a Renilla luciferase reporter gene, were trypsinized and placed into each well of a 96-well plate with titrated test compounds added in columns 3 through 12; columns 1 and 2 contained a control compound (HCV protease inhibitor), and the bottom row contained cells without compound. The plates were then placed in a CO2 incubator at 37° C.
Assays. Subsequent to addition of the test compounds described above (FRET Assay Preparation), at various times the plate was removed and Alamar blue solution (Trek Diagnostics, #00-100) was added per well as a measure of cellular toxicity. After reading in a Cytoflour 4000 instrument (PE Biosystems), plates were rinsed with PBS and then used for FRET assay by the addition of 30 ul of the FRET peptide assay reagent described above (FRET Assay Preparation) per well. The plate was then placed into the Cytoflour 4000 instrument which had been set to 340 excite/490 emission, automatic mode for 20 cycles and the plate read in a kinetic mode. Typically, the signal to noise using an endpoint analysis after the reads was at least three-fold. Alternatively, after Alamar blue reading, plates were rinsed with PBS, 50 ul of DMEM (high glucose) without phenol red was added and plates were then used for luciferase assay using the Promega Dual-Glo Luciferase Assay System.
Compound analysis was determined by quantification of the relative HCV replicon inhibition and the relative cytotoxicity values. To calculate cytoxicity values, the average Alamar Blue fluorescence signals from the control wells were set as 100% non-toxic. The individual signals in each of the compound test wells were then divided by the average control signal and multiplied by 100% to determine […]. To calculate the HCV replicon inhibition values, an average background value was obtained from the two wells containing the highest amount of HCV protease inhibitor at the end of the assay period. These numbers were similar to those obtained from naïve Huh-7 cells.
The background numbers were then subtracted from the average signal obtained from the control wells and this number was used as 100% activity. The individual signals in each of the compound test wells were then divided by the averaged control values after background subtraction and multiplied by 100% to determine percent activity. EC50 values for a protease inhibitor titration were calculated as the concentration which caused a 50% reduction in FRET or luciferase activity. The two numbers generated for the compound plate, percent cytoxicity and percent activity were used to determine compounds of interest for further analysis.

T1 sequence (Q9WMX2 2420-2992): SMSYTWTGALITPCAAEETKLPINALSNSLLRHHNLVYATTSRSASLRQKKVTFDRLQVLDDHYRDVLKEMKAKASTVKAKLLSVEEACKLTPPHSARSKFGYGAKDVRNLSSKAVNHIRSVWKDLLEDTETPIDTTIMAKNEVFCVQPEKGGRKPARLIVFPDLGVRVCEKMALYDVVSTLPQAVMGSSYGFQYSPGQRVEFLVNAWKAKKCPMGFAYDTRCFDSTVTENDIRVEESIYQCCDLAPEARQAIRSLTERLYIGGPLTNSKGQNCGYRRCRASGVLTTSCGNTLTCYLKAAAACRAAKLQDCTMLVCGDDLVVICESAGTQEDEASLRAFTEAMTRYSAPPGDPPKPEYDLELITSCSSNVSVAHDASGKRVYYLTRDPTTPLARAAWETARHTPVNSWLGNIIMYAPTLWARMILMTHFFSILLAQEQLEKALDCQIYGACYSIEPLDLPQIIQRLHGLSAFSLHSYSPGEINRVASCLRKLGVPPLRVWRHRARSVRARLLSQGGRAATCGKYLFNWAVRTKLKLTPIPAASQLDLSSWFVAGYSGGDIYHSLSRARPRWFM

| SMILES | IC50 [1] [nM] | EC50 [2] [nM] |
| --- | --- | --- |
| COc1ccc2c(c1)[C@@H]1C[C@]1(NC(=O)OC(C)(C)C)Cn1c-2c(C2CCCCC2)c2ccc(C(=O)NS(=O)(=O)N(C)C)cc21 | 20 to 1000 | 20 to 1000 |
| COc1ccc2c(c1)C1CC1(N)Cn1c-2c(C2CCCCC2)c2ccc(C(=O)NS(=O)(=O)N(C)C)cc21 (stereo not shown) | 20 to 1000 | 20 to 1000 |
| O=C(O)c1ccc2c(C3CCCCC3)c3n(c2c1)CC1(NC(=O)N2CCOCC2)CC1c1ccccc1-3 (stereo not shown) | 20 to 1000 | 70 to 1000 |
| COc1ccc2c(c1)[C@@H]1C[C@]1(N)Cn1c-2c(C2CCCCC2)c2ccc(C(=O)NS(=O)(=O)N(C)C)cc21 | 20 to 1000 | 20 to 1000 |
| COc1ccc2c(c1)C1CC1(NC(=O)OC(C)(C)C)Cn1c-2c(C2CCCCC2)c2ccc(C(=O)NS(=O)(=O)N(C)C)cc21 (stereo not shown) | 20 to 1000 | 20 to 1000 |
| COc1ccc2c(c1)C1CC1(NC(=O)N(C)CC1CCOCC1)Cn1c-2c(C2CCCCC2)c2ccc(C(=O)NS(=O)(=O)N(C)C)cc21 (stereo not shown) | 20 to 1000 | 20 to 1000 |
| COCCNC(=O)CN(C)C(=O)NC12CC1c1cc(OC)ccc1-c1c(C3CCCCC3)c3ccc(C(=O)NS(=O)(=O)N(C)C)cc3n1C2 (stereo not shown) | 20 to 1000 | 20 to 1000 |
| COc1ccc2c(c1)C1CC1(NC(=O)N(C)CC(N)=O)Cn1c-2c(C2CCCCC2)c2ccc(C(=O)NS(=O)(=O)N(C)C)cc21 (stereo not shown) | 20 to 1000 | 20 to 1000 |
| CNC12CC1c1cc(OC)ccc1-c1c(C3CCCCC3)c3ccc(C(=O)NS(=O)(=O)N(C)C)cc3n1C2 (stereo not shown) | 20 to 1000 |  |
| COc1ccc2c(c1)C1CC1(NC(=O)N1C[C@@H](C)N(C)[C@@H](C)C1)Cn1c-2c(C2CCCCC2)c2ccc(C(=O)NS(=O)(=O)N(C)C)cc21 (stereo partly shown) | 20 to 1000 | 20 to 1000 |
| COc1ccc2c(c1)C1CC1(NC(=O)N(C)CC(=O)N1CCN(C)CC1)Cn1c-2c(C2CCCCC2)c2ccc(C(=O)NS(=O)(=O)N(C)C)cc21 (stereo not shown) | 20 to 1000 | 20 to 1000 |
| COc1ccc2c(c1)C1CC1(NC(=O)N(C)CCN(C)C)Cn1c-2c(C2CCCCC2)c2ccc(C(=O)NS(=O)(=O)N(C)C)cc21 (stereo not shown) | 20 to 1000 | 20 to 1000 |
| COc1ccc2c(c1)C1CC1(NC(=O)N1CC(OC)C1)Cn1c-2c(C2CCCCC2)c2ccc(C(=O)NS(=O)(=O)N(C)C)cc21 (stereo not shown) | 20 to 1000 | 20 to 1000 |
| COc1ccc2c(c1)C1CC1(NC(=O)N1CCOCC1)Cn1c-2c(C2CCCCC2)c2ccc(C(=O)O)cc21 (stereo not shown) | 20 to 1000 | 70 to 1000 |
| COc1ccc2c(c1)C1CC1(NC(=O)N1C[C@@H](C)O[C@@H](C)C1)Cn1c-2c(C2CCCCC2)c2ccc(C(=O)NS(=O)(=O)N(C)C)cc21 (stereo partly shown) | 20 to 1000 | 70 to 1000 |
| COC(=O)c1ccc2c(C3CCCCC3)c3n(c2c1)CC1(NC(=O)N2CCOCC2)CC1c1ccccc1-3 (stereo not shown) | 20 to 1000 |  |
| COC(=O)c1ccc2c(C3CCCCC3)c3n(c2c1)CC1(NC(=O)N2CCOCC2)CC1c1cc(OC)ccc1-3 (stereo not shown) | 20 to 1000 |  |
